Tests used:
CLL cell lines = assay: Thymidine incorporation assay (cell proliferation); assay type: cell-based
Method: After four days, cells were diluted 1:7 with fresh media, containing the same concentration of treatment compound. Three days later, ^3H-thymidine was added to label proliferating cells for 6-7 hours. Cells were then harvested onto filter plates for counting on a scintillation counter.

[1] = system: samples from CLL patients; assay: in vitro proliferation assays on samples from four groups of CLL patients; assay type: cell-based, human
Source text: The samples used in this study were from four groups of CLL patients.

primary CLL samples = assay: TMT-tagging and mass-spectrometry profiling of relative protein abundance after compound exposure; assay type: cell-based, human
Source text: Data import: Relative abundance (RA) data was imported into the R statistical programming environment v.3.1.2. Proteins with less than one spectral count in any of the three MS runs for each case scenario were filtered out and relative abundance was scale normalized to the same median by using normalizeBetweenArrays( ) function implemented in the limma package for Bioconductor (see Yang et al., Nucleic Acids Research, 30(4), e15 (2002)).
Comparative analysis: RA scores were log 2-transformed to perform direct comparison of compounds exposure versus DMSO control and a paired moderated t-test (see Smyth, Statistical Applications in Genetics and Molecular Biology, 3(1), article 3 (2004)) was performed by using lmfit( ) and eBayes( ) functions form limma package to test differential relative abundance between experimental conditions. For differential analysis across cases, the log-2 fold changes of replicates for two of the case scenarios were considered.
Linear regression analysis: Linear regression was modeled by using lm( ) function from the stats package. This function provided the correlation coefficients as well as the linear fitted model. Data were assessed for outliers detection within the linear model via the Studentized residuals method (implemented in outlierTest( ) function from car package) and deemed significant if their q-values were under a threshold of 0.05 (5%).
The proteins subjected to the analysis were those with more than one spectral count matched in three MS runs representing each case scenario. A total of 6114, 6070, 5982 and 5382 proteins were retained for each case scenario. Differential expression analysis was applied to the high and consistent coverage of 4594 proteins quantified across all case scenarios. FIGS. 2A-2D show distribution of normalized relative abundances for each replicate of the four case scenarios (Cases B1-B4). The standard deviation of each replicate is represented as a stair-plot line at the bottom of the boxplot. FIGS. 3A-3D show heatmaps representing correlations of log 2 fold-changes of protein levels post compound treatment as compared with DMSO across conditions for all case scenarios. Low correlation of log 2 fold-changes at 6 hours may be due to the alteration of a small subset of proteins at an early time point without strong general effects across the proteome. Stronger correlations at 24 hours can be linked to a higher proportion of proteins perturbed reflecting downstream changes upon compound exposure.

[2] = FIG. 5 heatmap, 10 μM, 24 hours, vs DMSO

Nc1cccc2c1CN(C1CCC(=O)NC1=O)C2=O (centres unmarked) [lenalidomide, 1-oxo-2-(2,6-dioxopiperidin-3-yl)-4-aminoisoindoline, reference compound]
responsiveness of cell lines to treatment (CLL cell lines; Bucket #1 (EHEB and I83-E95)): responsive to both compounds | responsiveness of cell lines to treatment (CLL cell lines; Bucket #2 (Mec2, CII, and CI)): responsive to both compounds | responsiveness of cell lines to treatment (CLL cell lines; Bucket #4 (HG3)): not responsive to either Compound A or lenalidomide | effect on cell proliferation ([1]; samples from the fourth group of patients (Case B4)): neither Compound A nor lenalidomide had any effect on cell proliferation | effect on cell proliferation ([1]; samples from the third group of patients (Case B3)): no effect on cell proliferation | protein abundance levels of SELL, SNX20 and KLF13 upon exposure (primary CLL samples; 10 μM, 24 hours): not affected or slightly increased | GZMB protein expression level upon exposure (primary CLL samples; Case B1): increased | level of WIZ (widely-interspaced zinc-finger) upon exposure (primary CLL samples; Case B1): increased | GZMB protein expression level upon exposure (primary CLL samples; Case B4): decreased | levels of Group 4 proteins (6 proteins including IKZF3 and a second IKZF1 isoform) upon exposure (primary CLL samples; [2]): mild effects | protein abundance levels of Group 3 proteins (SMNX20, SELL, KLF13, WIZ, IKZF1, NFKBIE, TCF7 and IRF8) upon exposure (primary CLL samples; [2]): do not change or increase

From patent US20170038387A1, “METHODS FOR TREATING CHRONIC LYMPHOCYTIC LEUKEMIA AND THE USE OF BIOMARKERS AS A PREDICTOR OF CLINICAL SENSITIVITY TO IMMUNOMODULATORY THERAPIES” (Celgene Corporation, priority 2015, published 2017)
